Source: patent US20200216441A1, “PESTICIDALLY ACTIVE HETEROCYCLIC DERIVATIVES WITH SULFUR CONTAINING SUBSTITUENTS” (SYNGENTA PARTICIPATIONS AG, priority 2017, published 2020)

How the values were obtained:
[1] = tested on: Euschistus heros (Neotropical Brown Stink Bug); experiment: whole plant or invertebrate; type: in vivo; settings: 120 h, application rate of 200 ppm, N2 nymphs on sprayed soybean leaves, 5 days after infestation, read-out: effect in at least one of the two categories (mortality or growth inhibition)
[2] = tested on: Myzus persicae (Green Peach Aphid); experiment: whole plant or invertebrate; settings: foliar, 144 h
[3] = tested on: Diabrotica Balteata (Corn Root Worm); experiment: Diabrotica balteata (Corn Root Worm); settings: in Zea mays, 96 h, read-out: effect in at least one of the two categories (mortality or growth inhibition)
[4] = tested on: Myzus persicae (Green Peach Aphid); experiment: whole plant or invertebrate; type: in vivo; settings: 144 h, test rate of 24 ppm, systemic, roots of infested pea seedlings in test solution, 6 days
[5] = tested on: Plutella xylostella (Diamond Back Moth); experiment: whole plant or invertebrate; type: in vivo; settings: 120 h, application rate of 200 ppm, L2 larvae on treated artificial diet, 5 days after infestation, read-out: effect in at least one of the two categories (mortality or growth inhibition)
[6] = tested on: Bemisia tabaci (Cotton White Fly); settings: in Gossypium hirsutum, foliar, 144 h
[7] = tested on: Spodoptera littoralis (Egyptian Cotton Leaf Worm); experiment: whole plant or invertebrate; settings: in Gossypium barbadense, foliar, 72 h, read-out: control (mortality, anti-feeding effect, growth inhibition)

CCS(=O)(=O)c1cc(OCC2(C#N)CC2)ccc1-c1nc2cc(C(F)(F)F)ncc2n1C [Compound P101, 1-[[3-ethylsulfonyl-4-[3-methyl-6-(trifluoromethyl)imidazo[4,5-c]pyridin-2-yl]phenoxy]methyl]cyclopropanecarbonitrile]
≥ 80%: percent effect (mortality or growth inhibition) at 200 ppm [1] | mortality at 200 ppm [2] | mortality at 200 ppm [3] | mortality at 24 ppm [4] | percent effect (mortality or growth inhibition) at 200 ppm [5] | mortality at 200 ppm [6] | mortality at 200 ppm [7]

CCS(=O)(=O)c1cc(OC(CF)CF)ccc1-c1nc2cc(C(F)(F)F)ncc2n1C [Compound P100, 2-[2-ethylsulfonyl-4-[2-fluoro-1-(fluoromethyl)ethoxy]phenyl]-3-methyl-6-(trifluoromethyl)imidazo[4,5-c]pyridine]
≥ 80%: percent effect (mortality or growth inhibition) at 200 ppm [1] | mortality at 200 ppm [2] | mortality at 200 ppm [3] | mortality at 24 ppm [4] | percent effect (mortality or growth inhibition) at 200 ppm [5] | mortality at 200 ppm [6] | mortality at 200 ppm [7]

CCS(=O)(=O)c1cc(OC(C)C)cnc1-c1nc2cc(S(=O)(=O)C(F)(F)F)ncc2n1C [Compound P72, 2-(3-ethylsulfonyl-5-isopropoxy-2-pyridyl)-3-methyl-6-(trifluoromethylsulfonyl)imidazo[4,5-c]pyridine]
≥ 80%: percent effect (mortality or growth inhibition) at 200 ppm [1] | mortality at 200 ppm [2] | mortality at 200 ppm [3] | mortality at 24 ppm [4] | percent effect (mortality or growth inhibition) at 200 ppm [5] | mortality at 200 ppm [6] | mortality at 200 ppm [7]

CCS(=O)(=O)c1cc(OCC(F)(F)F)cnc1-c1nc2cc(C(F)(F)F)ncc2n1C [Compound P15, 2-[3-ethylsulfonyl-5-(2,2,2-trifluoroethoxy)-2-pyridyl]-3-methyl-6-(trifluoromethyl)imidazo[4,5-c]pyridine]
≥ 80%: percent effect (mortality or growth inhibition) at 200 ppm [1] | mortality at 200 ppm [2] | mortality at 200 ppm [3] | mortality at 24 ppm [4] | percent effect (mortality or growth inhibition) at 200 ppm [5] | mortality at 200 ppm [6] | mortality at 200 ppm [7]

CCS(=O)(=O)c1cc(OC(C)(C)CF)cnc1-c1nc2cc(C(F)(F)F)ncc2n1C [Compound P30, 2-[3-ethylsulfonyl-5-(2-fluoro-1,1-dimethyl-ethoxy)-2-pyridyl]-3-methyl-6-(trifluoromethyl)imidazo[4,5-c]pyridine]
≥ 80%: percent effect (mortality or growth inhibition) at 200 ppm [1] | mortality at 200 ppm [2] | mortality at 200 ppm [3] | mortality at 24 ppm [4] | percent effect (mortality or growth inhibition) at 200 ppm [5] | mortality at 200 ppm [6] | mortality at 200 ppm [7]

CCS(=O)(=O)c1cc(OCCOC)cnc1-c1nc2cc(C(F)(F)F)ncc2n1C [Compound P8, 2-[3-ethylsulfonyl-5-(2-methoxyethoxy)-2-pyridyl]-3-methyl-6-(trifluoromethyl)imidazo[4,5-c]pyridine]
≥ 80%: percent effect (mortality or growth inhibition) at 200 ppm [1] | mortality at 200 ppm [2] | mortality at 200 ppm [3] | mortality at 24 ppm [4] | percent effect (mortality or growth inhibition) at 200 ppm [5] | mortality at 200 ppm [6] | mortality at 200 ppm [7]

CCS(=O)(=O)c1cc(OC(C)F)cnc1-c1nc2cc(C(F)(F)F)ncc2n1C (stereo not shown) [Compound P40, 2-[3-ethylsulfonyl-5-(1-fluoroethoxy)-2-pyridyl]-3-methyl-6-(trifluoromethyl)imidazo[4,5-c]pyridine]
≥ 80%: percent effect (mortality or growth inhibition) at 200 ppm [1] | mortality at 200 ppm [2] | mortality at 200 ppm [3] | mortality at 24 ppm [4] | percent effect (mortality or growth inhibition) at 200 ppm [5] | mortality at 200 ppm [6] | mortality at 200 ppm [7]
